Data taken from US10738074B2, “Cyclic di-nucleotide compounds as STING agonists” (Merck Sharp & Dohme Corp., priority 2015, dated 2020).

How the values were obtained:
full-length WT STING = full-length WT STING (Homo sapiens (Human), UniProt Q86WV6, H232R); experiment: 3H-cGAMP filtration binding assay (WT STING); details: competition with tritiated cGAMP, WT STING membrane
Excerpt: (§1) The ability of compounds to bind STING is quantified by their ability to compete with tritiated cGAMP ligand for human STING receptor membrane using a radioactive filter-binding assay. The binding assay employs STING receptor obtained from Trichoplusia ni cell membranes (Tni; Expression Systems, cat #94-002F, www.expressionsystems.com) overexpressing full-length WT STING prepared in-house and tritiated cGAMP ligand also purified in-house.
The basic WT STING filtration assay protocol is as follows:
The filter plates were then dried at 55° C. for 30 min using a pressurized VWR oven before 30 uL of Ultima GoldF scintillate was added to each well. Tritium levels for each reaction well were then measured using a PerkinElmer TopCount plate reader.
(§2) After normalization to controls, the percent activity for each compound concentration was calculated by measuring the amount of remaining radioactivity. The plot of percent activity versus the log of compound concentration was fit with a 4-parameter dose response equation to calculate EC50 values.

THP1 cells = experiment: IFN-β secretion in THP1 cell culture (5 h); type: cell-based, human; details: IFN-β secretion, THP1 cells, 5 h, 30 μM; for activation at 30 µM: Homo sapiens, THP-1, 5 h, read-out: % Effect at 30 μM relative to 2′3′-cGAMP
Procedure: The ability of compounds to stimulate the secretion of interferon-beta from THP1 cells was measured using a human IFN-β AlphaLISA kit (Perkin Elmer, Cat. No. AL265F). The basic protocol is as follows:
A Labcyte Echo 550 acoustic dispenser was used to transfer 120 nL of compound dissolved in DMSO into the wells of an empty, sterile 384-well microplate, (Corning, Cat. No. 3712). THP1 cells (American Type Culture Collection, Cat. No. TIB202) previously frozen in Recovery Medium (Life Technologies, Cat. No. 12648-010) were thawed and immediately diluted 10-fold into 37° C. assay medium (RPMI 1640+L-Glutamine & phenol red, Life Technologies, Cat. No. 11875-085; 0.5% heat inactivated fetal bovine serum, Sigma Aldrich, Cat. No. F4135; 1 mM Sodium Pyruvate, Life Technologies, Cat. No. 11360-070; lx non-essential amino acids; Life Technologies, Cat. No. 11140-050). The cell viability and count was ascertained using a Beckman Coulter V-Cell XR cell counter. The cells suspension was centrifuged at 200×g for 5 min at RT. Cells were resuspended to a density of 0.8×10^6/mL in 37° C. assay medium. Subsequent liquid transfers were performed using either a Matrix electronic multichannel pipette or an Agilent Bravo Automated Liquid Handling Platform.
The assay was started by dispensing 40 μL of the previously prepared cell suspension into the wells of the plate containing compounds. After 5 h incubation at 37° C., 5% CO2 in a humidified atmosphere, the plate of cells and compounds was centrifuged at 200×g for 5 min at RT. From each well, 5 μL of supernatant was transferred into corresponding wells of a white 384-well plate (Perkin Elmer, Cat. No. 6005620). To these supernatant-containing wells was added 10 μL of 5× Anti-Analyte Acceptor beads (50 μg/mL of AlphaLISA HiBlock Buffer) and incubated for 30 min at RT while shaking on an orbital plate shaker. To each well was added 10 μL of 5× Biotinylated Antibody Anti-analyte (5 nM in AlphaLISA HiBlock Buffer) and incubated on an orbital plate shaker for 60 min at RT or overnight at 4° C. To each well was added 25 μL of 2× SA-Donor beads (80 μg/mL in AlphaLISA HiBlock Buffer) and incubated for 30-45 min at RT in the dark while shaking on an orbital plate shaker. The plate was then read on a Perkin Elmer Envision (λex=680 nm, λem=[…]). The percent effect of the AlphaLISA signal at each compound concentration was calculated based on 30 uM cGAMP positive controls and 0.3% DMSO negative controls. The plot of percent effect versus the log of compound concentration was fit with a 4-parameter concentration response equation to calculate EC50 values. The test compounds were tested at concentrations 30000, 10000, 3333, 1111, 370.4, 123.4, 41.2, 13.7, 4.6, and 1.5 nM with 0.3% residual DMSO.
Compounds of the disclosure were evaluated for IFN-β secretion in THP1 cell culture as described above. The following table tabulates the biological data for these compounds as percent activation relative to 2′3′-cGAMP at the 30 μM concentration.

full-length HAQ STING = full-length HAQ STING (Homo sapiens (Human), UniProt Q86WV6, G230A/H232R/R293Q/R71H); experiment: 3H-cGAMP filtration binding assay (HAQ STING); details: competition with tritiated cGAMP, HAQ STING membrane
Excerpt: as §1, with “the” for “their”, “Hi-Five” for “Trichoplusia ni”, “membranes” for “membranes (Tni; Expression Systems, cat #94-002F, www.expressionsystems.com)”, “HAQ” for “WT”
as §1, with “www.exrpressionsystems.com)” for “www.expressionsystems.com)”, “HAQ” for “WT”
The basic HAQ STING filtration assay protocol is as follows:
Compound and membrane then preincubated for 60 min at RT to allow compound binding to equilibrate. Following equilibration, 8 nM of [^3H] c-GAMP ligand was prepared by diluting into assay buffer, and 50 uL of this working stock was then manually added to each well of the assay plate. […] The filter plates were then dried at 55° C. for 30 min using a pressurized VWR oven before 30 uL of Ultima GoldF scintillate was added to each well. Tritium levels for each reaction well were then measured using a PerkinElmer TopCount plate reader.
as §2

full-length WT STING, sequence (Q86WV6 other isoform, or with tags, fused parts or gaps H232R (already in the parent)): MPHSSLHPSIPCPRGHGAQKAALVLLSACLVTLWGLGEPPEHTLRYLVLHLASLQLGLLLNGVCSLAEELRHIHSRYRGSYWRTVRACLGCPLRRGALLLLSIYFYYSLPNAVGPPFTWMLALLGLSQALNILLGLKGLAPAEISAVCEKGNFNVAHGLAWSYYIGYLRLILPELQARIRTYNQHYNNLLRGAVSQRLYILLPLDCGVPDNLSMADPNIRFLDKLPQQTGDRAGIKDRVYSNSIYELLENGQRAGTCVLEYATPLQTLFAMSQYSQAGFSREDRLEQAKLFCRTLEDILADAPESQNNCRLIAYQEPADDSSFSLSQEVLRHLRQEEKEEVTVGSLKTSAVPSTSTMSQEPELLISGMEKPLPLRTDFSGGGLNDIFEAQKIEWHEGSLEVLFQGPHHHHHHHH
full-length HAQ STING, sequence (Q86WV6 other isoform, or with tags, fused parts or gaps, stated change not applied): as the sequence (Q86WV6 other isoform, or with tags, fused parts or gaps H232R (already in the parent)) above, with R71H, G230A, R293Q counted along it

Row | EC50 (full-length WT STING) [nM] | EC50 (full-length HAQ STING) [nM] | SMILES | % Effect at 30 μM relative to 2′3′-cGAMP (THP1 cells) [%] | activation at 30 µM (THP1 cells) [%]
1 | 4 |  | Nc1nc2c(ncn2[C@@H]2O[C@@H]3COP(O)(=S)O[C@@H]4[C@H](F)[C@@H](COP(O)(=S)O[C@@H]2[C@@H]3F)O[C@H]4n2cnc3c(=O)[nH]c(N)nc32)c(=O)[nH]1 (single isomer, unassigned) [Example 23] | 135 | 
2 | < 1 |  | Nc1nc2c(ncn2[C@@H]2O[C@@H]3COP(O)(=S)O[C@@H]4[C@H](F)[C@@H](COP(O)(=S)O[C@@H]2[C@@H]3F)O[C@H]4n2cnc3c(=O)[nH]c(N)nc32)c(=O)[nH]1 (single isomer, unassigned) [Example 22] | 129 | 
3 | 1.2 |  | Nc1nc2c(ncn2[C@@H]2O[C@@H]3COP(O)(=S)O[C@@H]4[C@H](F)[C@@H](COP(O)(=S)O[C@@H]2[C@@H]3F)O[C@H]4n2cnc3c(=O)[nH]c(N)nc32)c(=O)[nH]1 (single isomer, unassigned) [Example 24] | 84 | 
4 | < 1 |  | Nc1nc2c(nnn2[C@@H]2O[C@@H]3COP(=O)(S)O[C@@H]4[C@H](F)[C@@H](COP(=O)(S)O[C@@H]2[C@@H]3F)O[C@H]4n2nnc3c(=O)[nH]c(N)nc32)c(=O)[nH]1 (stereo partly drawn) [Example 31, 3,3′-[(1S,6R,8R,9S,14R,16R,17R,18R)-17,18-difluoro-3,11-dioxido-3,11-disulfanyl-2,4,7,10,12,15-hexaoxa-3,11-diphosphatricyclo[12.2.1.1^6,9]octadecane-8,16-diyl]bis(5-amino-3,6-dihydro-7H-[1,2,3]triazolo[4,5-d]pyrimidin-7-one)] |  | 57
5 | 7350 |  | Nc1nc2c(ncn2[C@@H]2O[C@@H]3COP(=O)(S)O[C@@H]4[C@@H](F)[C@@H](COP(=O)(S)O[C@@H]2[C@H]3F)O[C@H]4n2cnc3c(=O)[nH]c(N)nc32)c(=O)[nH]1 (stereo partly drawn) [Example 30, 9,9′-[(1S,6R,8R,9S,14R,16R,17S,18S)-17,18-difluoro-3,11-dioxido-3,11-disulfanyl-2,4,7,10,12,15-hexaoxa-3,11-diphosphatricyclo[12.2.1.1^6,9]octadecane-8,16-diyl]bis(2-amino-1,9-dihydro-6H-purin-6-one)] |  | 8
6 |  | 11.2 | Nc1nc2c(ncn2[C@@H]2O[C@@H]3COP(=O)(O)O[C@@H]4[C@@H](F)[C@@H](COP(=O)(O)O[C@@H]2[C@@H]3F)O[C@H]4n2cnc3c(N)ncnc32)c(=O)[nH]1 [Example 13, 2-amino-9-[(1S,6R,8R,9S,14R,16R,17S,18R)-16-(6-amino-9H-purin-9-yl)-17,18-difluoro-3,11-dihydroxy-3,11-dioxido-2,4,7,10,12,15-hexaoxa-3,11-diphosphatricyclo[12.2.1.1^6,9]octadec-8-yl]-1,9-dihydro-6H-purin-6-one] |  | 128
7 |  | 6.6 | Nc1ncnc2c1ncn2[C@@H]1O[C@@H]2COP(=O)(S)O[C@@H]3[C@H](O)[C@@H](COP(=O)(S)O[C@@H]1[C@@H]2O)O[C@H]3n1cnc2c(N)ncnc21 (stereo partly drawn) [Example 27, (1R,6R,8R,9R,14R,16R,17R,18R)-8,16-bis(6-amino-9H-purin-9-yl)-3,11-disulfanyl-2,4,7,10,12,15-hexaoxa-3,11-diphosphatricyclo[12.2.1.1^6,9]octadecane-17,18-diol 3,11-dioxide] |  | 76
8 |  | < 1 | [N-]=[N+]=N[C@H]1[C@H]2OP(=O)(O)OC[C@H]3O[C@@H](n4cnc5c(N)ncnc54)[C@H](OP(=O)(O)OC[C@H]1O[C@H]2n1cnc2c(=O)[nH]c(N)nc21)[C@@H]3O [Example 5, 2-amino-9-[(1R,6S,8R,9R,14R,16R,17R,18R)-16-(6-amino-9H-purin-9-yl)-18-azido-3,11,17-trihydroxy-3,11-dioxido-2,4,7,10,12,15-hexaoxa-3,11-diphosphatricyclo[12.2.1.1^6,9]octadec-8-yl]-1,9-dihydro-6H-purin-6-one] |  | 145
9 |  | 45.2 | C[C@H]1OP(=O)(O)O[C@@H]2[C@H](F)[C@@H](COP(=O)(O)O[C@@H]3[C@H](O)[C@@H]1O[C@H]3n1cnc3c(N)ncnc31)O[C@H]2n1cnc2c(=O)[nH]c(N)nc21 [Example 7, 2-amino-9-[(1R,6R,8R,9S,13R,14S,16R,17R,18R)-16-(6-amino-9H-purin-9-yl)-18-fluoro-3,11,17-trihydroxy-13-methyl-3,11-dioxido-2,4,7,10,12,15-hexaoxa-3,11-diphosphatricyclo[12.2.1.16,9]octadec-8-yl]-1,9-dihydro-6H-purin-6-one] |  | 59
10 |  | 1.8 | Nc1nc2c(ncn2[C@@H]2O[C@@H]3COP(=O)(O)O[C@@H]4[C@H](F)[C@@H](COP(=O)(O)O[C@@H]2[C@@H]3O)O[C@H]4n2cnc3c(N)ncnc32)c(=O)[nH]1 [Example 4, 2-amino-9-[(1S,6R,8R,9R,14R,16R,17R,18R)-16-(6-amino-9H-purin-9-yl)-17-fluoro-3,11,18-trihydroxy-3,11-dioxido-2,4,7,10,12,15-hexaoxa-3,11-diphosphatricyclo[12.2.1.1^6,9]octadec-8-yl]-1,9-dihydro-6H-purin-6-one] |  | 104
11 |  | 674 | Nc1nc2c(ncn2[C@@H]2O[C@@H]3COP(=O)(O)O[C@@H]4C[C@@H](COP(=O)(O)O[C@@H]2C3)O[C@H]4n2cnc3c(N)ncnc32)c(=O)[nH]1 [Example 12, 2-amino-9-[(1R,6S,8R,9R,14S,16R)-16-(6-amino-9H-purin-9-yl)-3,11-dihydroxy-3,11-dioxido-2,4,7,10,12,15-hexaoxa-3,11-diphosphatricyclo[12.2.1.1^6,9]octadec-8-yl]-1,9-dihydro-6H-purin-6-one] |  | 50
12 |  | 19 | Nc1nc2c(ncn2[C@@H]2O[C@@H]3COP(=O)(O)O[C@@H]4C[C@@H](COP(=O)(O)O[C@@H]2[C@@H]3O)O[C@H]4n2cnc3c(N)ncnc32)c(=O)[nH]1 [Example 1, 2-amino-9-[(1R,6R,8R,9R,14S,16R,18R)-16-(6-amino-9H-purin-9-yl)-3,11,18-trihydroxy-3,11-dioxido-2,4,7,10,12,15-hexaoxa-3,11-diphosphatricyclo[12.2.1.1^6,9]octadec-8-yl]-1,9-dihydro-6H-purin-6-one] |  | 121
